Activity calls are given as the source filed them.
Tests used:
[1] = microbe, parasite or virus in culture; format: functional; conditions: Mycobacterium tuberculosis
cells = format: functional
[2] = THP-1 cell cytotoxicity, dose response, cytotoxicity control for non-replicating M. tuberculosis project (AID 489025); format: functional
[3] = HEp-2 cell cytotoxicity, dose response, cytotoxicity control for RSV inhibitor project, HTS (AID 2410); format: functional; conditions: human respiratory syncytial virus
[4] = HepG2 cell cytotoxicity, dose response, cytotoxicity control for non-replicating M. tuberculosis project (AID 489018); format: functional; conditions: Mycobacterium tuberculosis
Coagulation factor XII = target: T1, Coagulation factor XII (Homo sapiens, UniProt P00748); format: functional;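 note: activated factor XIIa alpha cleaving a fluorogenic AMC peptide substrate; inhibitor potency from loss of enzyme activity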
T1 sequence (P00748 whole entry): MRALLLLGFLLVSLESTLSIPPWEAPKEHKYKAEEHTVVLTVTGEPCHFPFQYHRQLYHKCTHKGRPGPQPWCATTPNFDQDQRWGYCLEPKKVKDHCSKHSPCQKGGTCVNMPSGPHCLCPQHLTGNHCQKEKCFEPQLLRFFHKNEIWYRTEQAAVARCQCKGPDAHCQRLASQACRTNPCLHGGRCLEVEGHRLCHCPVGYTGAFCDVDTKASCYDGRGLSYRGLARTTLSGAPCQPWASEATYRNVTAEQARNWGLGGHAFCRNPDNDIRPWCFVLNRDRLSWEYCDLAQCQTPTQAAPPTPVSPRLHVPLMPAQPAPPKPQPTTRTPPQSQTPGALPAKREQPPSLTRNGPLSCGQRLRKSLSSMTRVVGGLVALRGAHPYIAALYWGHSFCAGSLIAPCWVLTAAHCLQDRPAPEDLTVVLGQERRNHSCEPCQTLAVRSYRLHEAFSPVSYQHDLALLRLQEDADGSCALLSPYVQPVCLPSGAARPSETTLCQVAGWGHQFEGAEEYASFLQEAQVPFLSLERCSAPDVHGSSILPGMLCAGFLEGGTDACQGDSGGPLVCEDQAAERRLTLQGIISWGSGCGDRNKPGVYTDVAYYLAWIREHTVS

Cytochrome P450 3A4 = Cytochrome P450 3A4 (Homo sapiens, UniProt P08684); conditions: Potency;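 note: confirmatory qHTS run detecting inhibitors and substrates of CYP3A4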
Cytochrome P450 3A4, sequence (P08684 whole entry): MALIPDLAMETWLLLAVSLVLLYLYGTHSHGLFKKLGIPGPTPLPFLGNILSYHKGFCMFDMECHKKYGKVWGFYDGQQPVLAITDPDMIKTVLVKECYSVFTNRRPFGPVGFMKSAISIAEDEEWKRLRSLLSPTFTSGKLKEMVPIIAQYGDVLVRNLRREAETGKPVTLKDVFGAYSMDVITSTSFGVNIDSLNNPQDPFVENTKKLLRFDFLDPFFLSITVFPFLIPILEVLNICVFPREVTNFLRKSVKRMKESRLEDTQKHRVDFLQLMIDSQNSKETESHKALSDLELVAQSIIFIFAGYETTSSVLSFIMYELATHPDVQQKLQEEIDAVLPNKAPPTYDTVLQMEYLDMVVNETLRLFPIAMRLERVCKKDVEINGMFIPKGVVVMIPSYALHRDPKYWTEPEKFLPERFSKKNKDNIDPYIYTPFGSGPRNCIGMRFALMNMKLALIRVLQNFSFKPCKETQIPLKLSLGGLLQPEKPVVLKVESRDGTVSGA

[5] = target: T2, Lysosomal acid glucosylceramidase (Homo sapiens, UniProt P04062); assay: Dose response cell-based high throughput screening assay to identify enhancers of beta-glucosidase activity. [Related pubchem assays: 784 ]; format: functional
T2 sequence (P04062 whole entry): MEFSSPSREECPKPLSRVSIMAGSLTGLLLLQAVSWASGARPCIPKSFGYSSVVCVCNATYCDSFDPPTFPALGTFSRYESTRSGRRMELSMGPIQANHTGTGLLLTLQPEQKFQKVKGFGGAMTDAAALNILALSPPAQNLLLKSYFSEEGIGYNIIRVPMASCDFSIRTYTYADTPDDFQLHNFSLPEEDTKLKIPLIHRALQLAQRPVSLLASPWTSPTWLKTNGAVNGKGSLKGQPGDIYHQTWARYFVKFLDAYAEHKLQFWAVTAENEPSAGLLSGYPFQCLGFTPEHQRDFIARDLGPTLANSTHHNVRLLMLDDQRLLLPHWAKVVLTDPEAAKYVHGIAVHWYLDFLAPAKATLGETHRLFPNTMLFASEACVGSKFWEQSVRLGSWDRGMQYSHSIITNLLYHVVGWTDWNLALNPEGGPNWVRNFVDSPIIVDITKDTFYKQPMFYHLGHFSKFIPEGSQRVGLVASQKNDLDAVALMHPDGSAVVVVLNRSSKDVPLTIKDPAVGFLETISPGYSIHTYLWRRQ

Bcl-2-like protein 10 = target: T3, Bcl-2-like protein 10 (Homo sapiens, UniProt Q9HD36); assay: displacers of TR3 peptide from Bcl-B, primary screen, selectivity assay for Bfl-1 inhibitor project, biochemical, fluorescence polarization, FITC-TR3 peptide (AID 748);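 note: fluorescence polarization from a fluorescein-labelled TR3 peptide binding purified Bcl-B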
T3 sequence (Q9HD36 whole entry): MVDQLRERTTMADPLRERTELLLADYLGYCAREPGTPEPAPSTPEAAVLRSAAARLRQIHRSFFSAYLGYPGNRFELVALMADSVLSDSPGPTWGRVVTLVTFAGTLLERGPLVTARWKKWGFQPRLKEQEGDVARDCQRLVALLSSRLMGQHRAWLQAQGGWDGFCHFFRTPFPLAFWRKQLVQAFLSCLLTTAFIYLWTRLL

[6] = target: DNA dC->dU-editing enzyme APOBEC-3G (Homo sapiens, UniProt Q9HC16); format: functional;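 note: Dose-response counterscreen measuring inhibition of APOBEC3G DNA deaminase activity, run while confirming APOBEC3A inhibitors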
DNA dC->dU-editing enzyme APOBEC-3G, sequence (Q9HC16 whole entry): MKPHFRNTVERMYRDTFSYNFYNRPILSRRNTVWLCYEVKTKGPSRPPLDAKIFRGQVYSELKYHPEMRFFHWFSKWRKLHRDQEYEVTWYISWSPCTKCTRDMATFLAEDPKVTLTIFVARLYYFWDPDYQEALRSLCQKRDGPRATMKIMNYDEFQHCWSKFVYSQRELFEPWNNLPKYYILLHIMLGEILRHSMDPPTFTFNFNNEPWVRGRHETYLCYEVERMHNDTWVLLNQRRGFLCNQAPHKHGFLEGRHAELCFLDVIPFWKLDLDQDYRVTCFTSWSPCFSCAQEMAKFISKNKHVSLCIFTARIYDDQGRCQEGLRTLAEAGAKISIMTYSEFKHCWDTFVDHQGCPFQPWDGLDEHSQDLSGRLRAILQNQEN

[7] = target: DNA dC->dU-editing enzyme APOBEC-3A (Homo sapiens, UniProt P31941); assay: Dose Response confirmation of small molecule APOBEC3A DNA Deaminase Inhibitors via a fluorescence-based single-stranded DNA deaminase assay. [Related pubchem assays (depositor defined):AID493011, AID493024]; format: functional
DNA dC->dU-editing enzyme APOBEC-3A, sequence (P31941 whole entry, the tested form may be a part): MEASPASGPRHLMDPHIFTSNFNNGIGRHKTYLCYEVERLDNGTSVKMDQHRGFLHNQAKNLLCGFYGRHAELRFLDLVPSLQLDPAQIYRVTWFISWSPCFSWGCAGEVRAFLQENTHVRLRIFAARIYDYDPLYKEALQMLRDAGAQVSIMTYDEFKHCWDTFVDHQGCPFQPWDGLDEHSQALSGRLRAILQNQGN

[8] = target: T4, Carboxy-terminal domain RNA polymerase II polypeptide A small phosphatase 1 (Homo sapiens, UniProt Q9GZU7); assay: inhibitors of CTDSP1, concentration-response testing, biochemical assay, absorbance-based, actives from ultra-high-throughput screening (AID 540297); format: functional
T4 sequence (Q9GZU7 whole entry): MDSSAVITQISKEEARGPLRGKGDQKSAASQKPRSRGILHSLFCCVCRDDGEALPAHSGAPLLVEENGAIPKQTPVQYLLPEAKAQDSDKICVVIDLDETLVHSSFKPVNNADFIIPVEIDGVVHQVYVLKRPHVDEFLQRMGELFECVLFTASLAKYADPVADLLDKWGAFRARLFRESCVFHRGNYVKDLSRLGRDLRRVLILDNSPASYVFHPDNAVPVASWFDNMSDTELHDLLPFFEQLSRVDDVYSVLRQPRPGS

[9] = target: T5, Rac GTPase-activating protein 1 (Homo sapiens, UniProt Q9H0H5); assay: MgcRacGAP GTPase-activating activity inhibitors, confirmation, biochemical, ADP Hunter fluorescence, primary and confirmatory (AID 624330); format: functional
T5 sequence (Q9H0H5 whole entry): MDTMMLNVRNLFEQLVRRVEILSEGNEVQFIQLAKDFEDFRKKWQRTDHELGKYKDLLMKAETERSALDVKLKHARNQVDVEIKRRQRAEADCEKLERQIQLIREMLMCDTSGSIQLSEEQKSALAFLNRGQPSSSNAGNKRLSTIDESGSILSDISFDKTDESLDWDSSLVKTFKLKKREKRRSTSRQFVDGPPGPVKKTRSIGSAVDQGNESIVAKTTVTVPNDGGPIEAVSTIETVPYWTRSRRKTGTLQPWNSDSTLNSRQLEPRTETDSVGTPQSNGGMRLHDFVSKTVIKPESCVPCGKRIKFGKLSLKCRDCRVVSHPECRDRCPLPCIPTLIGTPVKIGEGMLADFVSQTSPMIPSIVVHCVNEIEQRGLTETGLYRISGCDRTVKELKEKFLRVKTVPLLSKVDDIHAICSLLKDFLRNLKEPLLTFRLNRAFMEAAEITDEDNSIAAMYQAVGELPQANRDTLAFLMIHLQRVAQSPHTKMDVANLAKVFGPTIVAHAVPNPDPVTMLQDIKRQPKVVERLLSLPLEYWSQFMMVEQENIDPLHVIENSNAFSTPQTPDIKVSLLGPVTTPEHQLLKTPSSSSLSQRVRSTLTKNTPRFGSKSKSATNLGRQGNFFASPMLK

[10] = target: T6, Intestinal-type alkaline phosphatase (Homo sapiens, UniProt P09923); assay: human IAP activators, dose response, biochemical, luminescent, uHTS hits, set 2 (AID 488817); format: functional;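 note: potency of activators that raise enzyme activity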
T6 sequence (P09923 whole entry): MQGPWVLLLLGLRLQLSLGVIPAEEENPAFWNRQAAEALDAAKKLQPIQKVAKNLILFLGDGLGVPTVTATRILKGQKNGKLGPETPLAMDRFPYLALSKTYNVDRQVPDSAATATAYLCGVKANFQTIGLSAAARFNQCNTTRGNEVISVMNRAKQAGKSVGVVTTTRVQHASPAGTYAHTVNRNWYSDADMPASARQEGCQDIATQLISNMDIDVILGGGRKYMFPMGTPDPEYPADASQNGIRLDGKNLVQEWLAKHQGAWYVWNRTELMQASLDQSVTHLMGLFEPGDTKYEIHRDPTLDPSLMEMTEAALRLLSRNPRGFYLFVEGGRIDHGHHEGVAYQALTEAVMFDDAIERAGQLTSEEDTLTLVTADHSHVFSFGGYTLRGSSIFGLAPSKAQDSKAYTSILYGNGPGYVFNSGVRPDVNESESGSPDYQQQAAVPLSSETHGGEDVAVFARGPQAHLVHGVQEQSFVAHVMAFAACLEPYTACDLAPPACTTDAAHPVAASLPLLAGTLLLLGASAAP

[11] = target: T7, Alkaline phosphatase, tissue-nonspecific isozyme (Homo sapiens, UniProt P05186); assay: TNAP enzyme activators, dose response, selectivity assay for human IAP activator project, biochemical, TNAP isozyme, human IAP uHTS hits (AID 488886); format: functional;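 note: potency of compounds raising TNAP activity as a selectivity check on IAP activators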
T7 sequence (P05186 whole entry): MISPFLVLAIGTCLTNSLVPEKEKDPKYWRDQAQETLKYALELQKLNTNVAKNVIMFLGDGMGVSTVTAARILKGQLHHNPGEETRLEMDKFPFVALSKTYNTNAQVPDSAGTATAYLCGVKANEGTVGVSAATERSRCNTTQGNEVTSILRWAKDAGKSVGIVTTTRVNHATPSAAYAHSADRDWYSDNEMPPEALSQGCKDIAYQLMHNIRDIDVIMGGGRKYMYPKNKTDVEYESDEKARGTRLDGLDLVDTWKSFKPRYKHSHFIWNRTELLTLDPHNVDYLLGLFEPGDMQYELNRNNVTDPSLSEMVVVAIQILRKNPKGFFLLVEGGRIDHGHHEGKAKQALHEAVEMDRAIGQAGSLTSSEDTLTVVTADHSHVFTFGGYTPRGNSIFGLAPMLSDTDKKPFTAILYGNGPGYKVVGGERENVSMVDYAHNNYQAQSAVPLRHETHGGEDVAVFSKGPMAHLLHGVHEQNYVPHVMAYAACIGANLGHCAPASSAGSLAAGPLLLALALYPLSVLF

[12] = target: T6, Intestinal-type alkaline phosphatase; assay: human intestinal alkaline phosphatase activators, dose response, biochemical, luminescence, uHTS hits (AID 463120); format: functional
[13] = target: Intestinal-type alkaline phosphatase (Mus musculus, UniProt P24822); assay: PubChem AID 488875; format: functional
[14] = target: T8, Voltage-gated N-type calcium channel alpha-1B subunit/Amyloid beta A4 precursor protein-binding family A member 1 (Homo sapiens, UniProt Q00975+Q02410); format: protein assay
T8 sequence (Q00975 whole entry): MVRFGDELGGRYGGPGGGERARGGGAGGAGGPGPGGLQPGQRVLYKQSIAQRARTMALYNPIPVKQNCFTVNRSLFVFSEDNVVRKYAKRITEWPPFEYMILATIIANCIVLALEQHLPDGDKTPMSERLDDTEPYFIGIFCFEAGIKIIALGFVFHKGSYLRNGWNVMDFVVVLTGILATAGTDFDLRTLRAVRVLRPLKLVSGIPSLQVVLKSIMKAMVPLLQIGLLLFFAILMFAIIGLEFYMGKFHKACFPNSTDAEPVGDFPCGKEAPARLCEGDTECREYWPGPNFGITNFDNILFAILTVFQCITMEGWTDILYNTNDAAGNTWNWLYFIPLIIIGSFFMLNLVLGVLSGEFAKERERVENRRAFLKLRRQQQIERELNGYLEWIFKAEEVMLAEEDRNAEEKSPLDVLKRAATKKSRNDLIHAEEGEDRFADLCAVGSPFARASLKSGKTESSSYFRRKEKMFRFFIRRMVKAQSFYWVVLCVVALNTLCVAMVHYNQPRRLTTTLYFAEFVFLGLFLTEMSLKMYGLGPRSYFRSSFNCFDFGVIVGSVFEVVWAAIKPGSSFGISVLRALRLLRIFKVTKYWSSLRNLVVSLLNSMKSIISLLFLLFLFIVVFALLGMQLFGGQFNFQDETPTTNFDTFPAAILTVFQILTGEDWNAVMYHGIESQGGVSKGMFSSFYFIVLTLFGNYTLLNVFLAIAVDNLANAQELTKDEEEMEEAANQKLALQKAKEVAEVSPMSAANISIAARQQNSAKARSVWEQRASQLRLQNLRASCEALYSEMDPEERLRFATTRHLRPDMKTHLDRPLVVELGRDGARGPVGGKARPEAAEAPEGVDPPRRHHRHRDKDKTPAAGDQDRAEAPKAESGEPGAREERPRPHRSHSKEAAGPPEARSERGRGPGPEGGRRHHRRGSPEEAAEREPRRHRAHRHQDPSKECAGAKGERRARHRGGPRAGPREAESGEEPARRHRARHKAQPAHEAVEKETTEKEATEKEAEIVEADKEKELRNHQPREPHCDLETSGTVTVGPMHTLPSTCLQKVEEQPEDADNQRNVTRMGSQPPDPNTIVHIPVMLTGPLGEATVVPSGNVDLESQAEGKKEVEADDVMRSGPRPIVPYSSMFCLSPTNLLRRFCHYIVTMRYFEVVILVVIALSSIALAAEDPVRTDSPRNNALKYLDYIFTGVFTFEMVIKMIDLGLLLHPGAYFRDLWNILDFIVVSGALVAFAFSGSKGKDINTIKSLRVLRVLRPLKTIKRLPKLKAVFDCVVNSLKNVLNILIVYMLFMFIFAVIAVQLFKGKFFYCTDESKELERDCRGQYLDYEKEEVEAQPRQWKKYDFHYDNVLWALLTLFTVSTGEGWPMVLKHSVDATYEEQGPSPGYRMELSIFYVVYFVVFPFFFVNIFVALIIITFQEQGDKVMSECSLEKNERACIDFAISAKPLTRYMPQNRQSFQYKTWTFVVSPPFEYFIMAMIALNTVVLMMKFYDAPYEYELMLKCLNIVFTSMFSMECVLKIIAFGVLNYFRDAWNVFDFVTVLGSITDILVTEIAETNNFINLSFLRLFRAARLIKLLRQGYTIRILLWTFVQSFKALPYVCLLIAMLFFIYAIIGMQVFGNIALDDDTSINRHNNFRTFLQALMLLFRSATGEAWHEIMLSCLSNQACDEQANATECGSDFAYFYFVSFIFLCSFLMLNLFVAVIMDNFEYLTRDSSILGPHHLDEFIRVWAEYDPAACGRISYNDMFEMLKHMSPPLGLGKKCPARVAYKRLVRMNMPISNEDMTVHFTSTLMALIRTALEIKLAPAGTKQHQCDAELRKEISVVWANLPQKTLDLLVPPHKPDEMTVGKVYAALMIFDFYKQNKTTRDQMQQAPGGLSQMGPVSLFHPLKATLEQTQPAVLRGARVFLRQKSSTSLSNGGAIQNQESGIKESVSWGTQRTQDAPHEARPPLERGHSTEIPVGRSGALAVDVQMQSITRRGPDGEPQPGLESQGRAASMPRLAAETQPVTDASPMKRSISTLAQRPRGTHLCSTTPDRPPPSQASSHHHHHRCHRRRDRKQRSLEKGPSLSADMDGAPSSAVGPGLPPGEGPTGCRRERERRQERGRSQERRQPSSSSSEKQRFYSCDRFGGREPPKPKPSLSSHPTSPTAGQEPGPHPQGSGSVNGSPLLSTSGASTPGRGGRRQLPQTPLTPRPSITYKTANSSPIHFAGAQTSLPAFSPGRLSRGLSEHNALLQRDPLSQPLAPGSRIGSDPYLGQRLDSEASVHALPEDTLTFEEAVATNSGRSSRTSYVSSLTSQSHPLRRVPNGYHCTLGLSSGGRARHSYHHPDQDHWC
T8 sequence (Q02410 whole entry): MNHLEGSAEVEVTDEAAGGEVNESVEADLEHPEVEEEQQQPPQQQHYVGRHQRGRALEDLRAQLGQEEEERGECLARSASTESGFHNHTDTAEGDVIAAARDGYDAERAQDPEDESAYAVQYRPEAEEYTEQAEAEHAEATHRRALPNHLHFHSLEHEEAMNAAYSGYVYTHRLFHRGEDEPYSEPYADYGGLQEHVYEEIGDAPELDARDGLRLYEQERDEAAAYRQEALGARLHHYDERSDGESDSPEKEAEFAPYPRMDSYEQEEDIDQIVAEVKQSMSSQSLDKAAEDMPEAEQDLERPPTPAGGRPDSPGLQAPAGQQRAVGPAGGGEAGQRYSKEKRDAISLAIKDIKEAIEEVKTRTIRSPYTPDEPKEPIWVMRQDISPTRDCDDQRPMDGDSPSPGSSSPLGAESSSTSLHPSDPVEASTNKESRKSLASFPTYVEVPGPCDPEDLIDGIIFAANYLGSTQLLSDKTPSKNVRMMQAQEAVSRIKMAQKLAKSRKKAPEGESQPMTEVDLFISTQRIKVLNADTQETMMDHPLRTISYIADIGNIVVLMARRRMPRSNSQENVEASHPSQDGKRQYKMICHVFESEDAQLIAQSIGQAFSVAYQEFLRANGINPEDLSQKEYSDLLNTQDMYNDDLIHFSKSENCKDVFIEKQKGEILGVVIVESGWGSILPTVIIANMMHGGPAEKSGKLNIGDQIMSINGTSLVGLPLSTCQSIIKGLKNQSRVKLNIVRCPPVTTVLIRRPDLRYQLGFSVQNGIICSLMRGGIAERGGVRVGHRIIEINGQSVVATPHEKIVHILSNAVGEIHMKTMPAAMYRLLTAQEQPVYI

[15] = target: T8, Voltage-gated N-type calcium channel alpha-1B subunit/Amyloid beta A4 precursor protein-binding family A member 1; format: protein assay; remark: listed apart in the source
[16] = target: T9, RNA-binding protein pos-1 (Caenorhabditis elegans, UniProt G5EF15); assay: inhibitors of POS-1/mex-3 RNA binding, dose response, biochemical, fluorescence polarization (AID 1964);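 note: purified POS-1 fused to maltose binding protein made in E. coli; potency of compounds blocking POS-1 binding to fluorescent RNA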
T9 sequence (G5EF15 whole entry): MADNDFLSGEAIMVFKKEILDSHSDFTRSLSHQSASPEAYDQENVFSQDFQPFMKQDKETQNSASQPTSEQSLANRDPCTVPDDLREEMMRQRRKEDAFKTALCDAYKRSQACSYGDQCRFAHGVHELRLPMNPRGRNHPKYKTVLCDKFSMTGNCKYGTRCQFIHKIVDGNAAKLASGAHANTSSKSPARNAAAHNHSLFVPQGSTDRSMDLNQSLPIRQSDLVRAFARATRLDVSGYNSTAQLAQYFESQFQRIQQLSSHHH

[17] = target: T10, Zinc finger protein mex-5 (Caenorhabditis elegans, UniProt Q9XUB2); assay: MEX-5/TCR-2 RNA interaction inhibitors, dose response, biochemical, C. elegans, fluorescence polarization (AID 1960)
T10 sequence (Q9XUB2 whole entry): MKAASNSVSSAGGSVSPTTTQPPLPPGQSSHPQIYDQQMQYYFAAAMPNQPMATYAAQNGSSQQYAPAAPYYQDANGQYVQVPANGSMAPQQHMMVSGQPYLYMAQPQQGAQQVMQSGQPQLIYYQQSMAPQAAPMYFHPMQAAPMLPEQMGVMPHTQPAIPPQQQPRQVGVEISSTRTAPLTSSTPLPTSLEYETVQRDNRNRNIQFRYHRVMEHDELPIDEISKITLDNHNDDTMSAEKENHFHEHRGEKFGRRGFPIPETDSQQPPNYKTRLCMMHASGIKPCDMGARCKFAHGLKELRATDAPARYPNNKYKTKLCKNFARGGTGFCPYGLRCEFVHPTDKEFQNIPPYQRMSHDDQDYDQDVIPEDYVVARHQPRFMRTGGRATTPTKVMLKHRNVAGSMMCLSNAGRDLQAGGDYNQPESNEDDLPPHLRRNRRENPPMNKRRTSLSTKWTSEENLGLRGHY

C=CCNCC(=O)N1N=C(c2ccc3ccccc3c2)CC1c1ccc(OC)cc1 (centres undefined)
CC50 [1]: 25.5 µM (active)
IC50 (cells): 18.1 µM (active)
CC50 [2]: 23.5 µM (active)
CC50 [3]: 14.9 µM (active)
CC50 [4]: > 20 µM (active)

CC1Cc2ccccc2N1S(=O)(=O)c1cccc2nsnc12 (centres undefined)
IC50 (Coagulation factor XII): > 50 µM (inactive)

CC1(C)CC2C1CCC1(C)OC2(C)CCC1O (centres undefined) [3,7-EPOXYCARYOPHYLLAN-6-OL]
AC50 (Cytochrome P450 3A4): 25.1 µM (inconclusive)

O=C(NC1CCCCC1)NC1CCCCC1 [1,3-DICYCLOHEXYLUREA]
AC50 (Cytochrome P450 3A4): 3.16 µM (inconclusive)

Cc1cc(NS(=O)(=O)c2ccc(NC(=O)CCN3C(=O)c4ccccc4C3=O)cc2)no1
EC50 [5]: > 50 µM (not active)

C=CCNS(=O)(=O)c1nc(C)c(Cl)c(C)c1C#N
IC50 (Bcl-2-like protein 10): > 100 µM (inactive)

CCOc1ccc(/N=C2/SCCCN2C)cc1
IC50 [6]: 2.35 µM (active)
IC50 [7]: 2.19 µM (active)
IC50 [8]: 17 µM (active)

Oc1cccc(Nc2ccccc2)c1
AC50 (Cytochrome P450 3A4): 15.8 µM (inconclusive)
IC50 [9]: 62.6 µM (active)

CCOc1ccccc1-n1c(SCC(N)=O)nnc1-c1ccc(O)cc1
EC50 [5]: > 50 µM (not active)

COc1ccc(S(=O)(=O)N(CC(=O)NCC2CCCO2)c2ccccc2)cc1OC (centres undefined)
EC50 [5]: > 50 µM (not active)

COc1ccccc1N(C)S(=O)(=O)c1ccc(Cl)c(C(=O)NNC(=O)c2ccccc2O)c1
EC50 [10]: 15.7 µM (active)
EC50 [11]: 26.5 µM (active)
EC50 [12]: 11.5 µM (active)
EC50 [13]: > 100 µM (inactive)

N#CCC(=O)N/N=C/c1cn(Cc2ccc(Cl)c(Cl)c2)c2ccccc12
IC50 [14]: > 50 µM (inactive)
IC50 [15]: > 56.8 µM (not active)

COC(=O)c1ccccc1NC(=O)c1cc[n+](C)cc1
IC50 [6]: 4.04 µM (active)
IC50 [7]: 3.62 µM (active)

N=c1c(C(=O)NCC2CCCO2)cc2c(=O)n3ccccc3nc2n1Cc1cccnc1 (centres undefined)
IC50 (Bcl-2-like protein 10): > 25 µM (inactive)
EC50 [16]: 17.1 µM (active)
EC50 [17]: 12.2 µM (active)

O=C(N/N=C/c1c(F)cccc1Cl)c1cc(C2CC2)[nH]n1
EC50 [10]: 40.6 µM (active)
EC50 [11]: 41.3 µM (active)
EC50 [12]: 21.5 µM (active)
EC50 [13]: > 100 µM (inactive)

CCOC(=O)C[n+]1c(C)n(C)c2cc(Cl)c(Cl)cc21
IC50 [6]: 2.2 µM (active)
IC50 [7]: 2.26 µM (active)

Source: ChEMBL document CHEMBL1201862, “PubChem BioAssay data set” (2004)
